Measured values as given in PMC12000251, “Evaluation of the Anti-Inflammatory Effects of Novel Fatty Acid-Binding Protein 4 Inhibitors in Microglia” (Journal of Neuroimmune Pharmacology, 2025).
Where two headings read alike, the source gives them in different places.

How the values were obtained:
[1] = test system: LPS-activated BV-2 cells; design: method as in Kagawa et al. [2023]; details: five-fold higher concentration than 10 µM; ref Kagawa et al. [2023]; cited from earlier work
[2] = test system: LPS-activated BV-2 cells; design: method as in Kagawa et al. [2023]; details: 50 µM; ref Kagawa et al. [2023]; cited from earlier work
[3] = molecular target: FABP4; design: method as in Floresta et al. [2017]; details: ref Floresta et al. [2017]; cited from earlier work
[4] = test system: LPS-activated BV-2 cells; design: method as in Duffy et al. [2017]; details: 50 µM; ref Duffy et al. [2017]; cited from earlier work
[5] = 1D 1H NMR aqueous solubility in phosphate buffer; format: physicochemical; details: kinetic from dmso stock, phosphate buffer pH 7.4 in D2O, 0.1% d6-DMSO, 25 °C, range 3.125–100 µM, read-out: Soluble in phosphate buffer up to (concentration)
Description: 1D ^1H NMR was employed to determine the solubility limits of the four MFP compounds and BMS309403 in phosphate buffer. This method has been commonly used to determine compound solubility in the drug discovery setting (Devine et al. [2014]; Lee et al. [2015b]; Lin et al. [2009]). A 100 mM of stock solution of each compound was first prepared in d6-DMSO. These stock solutions were then added into phosphate buffer (50 mM sodium phosphate, 25 mM NaCl, 100 µM of DSS, pH 7.4 in D2O) to achieve a final d6-DMSO concentration of 0.1% (v/v) which is equivalent to the DMSO concentration present in BV-2 cell culture experiments. All samples were inspected to note whether visible precipitates were formed. ^1H NMR spectra for all of the samples were acquired using Bruker Avance III 600 MHz spectrometer at 25 °C. Experimental data were acquired using a relaxation delay of 5 s with 128 scans, and water suppression using an excitation sculpting pulse scheme. Mestrelab Research 13.0 software was used to integrate the proton resonances of the compounds. A well-resolved peak (i.e. no overlaps with any other peaks) in the spectrum of each compound was chosen for integration, relative to the DSS peak (at 0 ppm). […] In addition, the chemical shifts of the resonances in the 1D ^1H NMR spectra were monitored.

[6] = test system: BV-2 cells; design: method as in Kagawa et al. [2023]; details: 50 µM; ref Kagawa et al. [2023]; cited from earlier work
[7] = design: method as in PubChem [2021]; details: ref PubChem [2021]; cited from earlier work
[8] = test system: LPS-activated BV-2 cells; assay: Intracellular ROS (DCF-DA) in LPS-activated BV-2 cells; format: cell-based, mouse; details: 2 h pre-treatment then co-treatment with 1 µg/mL LPS 24 h, vs LPS-only
Description: BV-2 cells were cultured in DMEM/F-12 media supplemented with 10% (v/v) FBS and 1% (v/v) penicillin/streptomycin, and kept at 37 °C in a humidified incubator ([…], 5% CO2) for all studies. Cells with 80% confluency were used for experiments. […] In some experiments (detailed in Results), BV-2 cells were exposed to MFP compounds for 2 h before a 24 h exposure to LPS and MFP compounds, and in some studies, in the presence of FABP4 siRNA using a 24 h treatment that we have previously employed (Low et al. [2021]). In brief, BV-2 cells were washed once 4 h post-seeding with blank DMEM/F-12 media. siRNA complexes (containing FABP4 siRNA, target sequence 5’-[…]-3’ or AllStar Negative Control siRNA, target sequence proprietary) were added dropwise onto the cells. siRNA complexes were prepared by mixing siRNA and HiPerfect transfection reagent together in FBS-free DMEM/F12 media and incubating for 15 min to allow the siRNA complexes to form. The cells were incubated with the siRNA complex for 5 min, after which, DMEM/F12 media containing FBS was added into each well to dilute the siRNA complexes to 5 nM.
Intracellular ROS in BV-2 cells, following treatment with MFP compounds and LPS, was detected using the widely-used membrane permeable probe, DCF-DA. Post treatment, BV-2 cells were rinsed once with warm HBSS prior to being incubated with 40 µM of DCF-DA for 30 min at 37°C, 5% CO2. The wells were then rinsed again with HBSS before being read on a Perkin-Elmer Enspire plate reader (λex: 488 nm, λem: 535 nm) as we have reported previously (Kagawa et al. [2023]).

[9] = molecular target: T1, Recombinantly-expressed human FABP4 (Homo sapiens, UniProt P15090); assay: Isothermal titration calorimetry (ITC) binding affinity to FABP4; details: one-site binding model
T1 construct: made in house
Description: A prior fragment screen identified a series of bi-aryl sulfonamides that bound to FABP4. Analogues of this chemical sulfonamide scaffold were then purchased, which led to the identification of the compounds used in this study (MFP-0011462, MFP-0012314, MFP-0012318, and MFP-0012328). Their predicted LogP and tPSA values were calculated in Vortex v2020.1.117658-s (Dotmatics, Boston, MA). The binding affinity of these four compounds was characterised by isothermal titration calorimetry (ITC). ITC was carried out using an iTC200 microcalorimeter (MicroCal, United Kingdom) with a coin shaped sample cell (201.4 μL) with stirring at 1000 rpm at 25°C. Titrations were performed in an ITC buffer (50 mM sodium phosphate, 50 mM NaCl, pH 7.4 with 2% DMSO). Compounds were diluted from concentrated stocks in ITC buffer and loaded into the titration syringe at a concentration of 1 mM, with a final DMSO concentration of 2% (v/v). Recombinantly-expressed human FABP4 was prepared as described previously (Lee et al. [2015a]) in an identical buffer at a protein concentration of 80 μM and placed in the sample cell. A thermal equilibration step at 25°C was followed by an initial 180 s delay step and subsequently an initial 0.2 μL injection. 16 serial injections of the 1 mM compound solution (2 μL each) were made at intervals of 220 s with continuous stirring of the solution in the sample cell. The iTC200 control software was used to operate and acquire raw data as power (microcalories/sec) vs time (min). The data were processed using the Origin 7.0 software (MicroCal) and the binding affinity (KD) was calculated by fitting the data to a one-site binding model.

[10] = test system: LPS-activated BV-2 cells; assay: Extracellular nitrite (Griess assay) from LPS-activated BV-2 cells; format: cell-based, mouse; details: 50 µM, 1 µg/mL LPS 24 h
Description: BV-2 cells were cultured in DMEM/F-12 media supplemented with 10% (v/v) FBS and 1% (v/v) penicillin/streptomycin, and kept at 37 °C in a humidified incubator ([…], 5% CO2) for all studies. Cells with 80% confluency were used for experiments. At 24 h post-seeding, BV-2 cells were treated with either of the MFP compounds (at concentrations detailed below) or vehicle (0.1% (v/v) DMSO) and 1 µg/mL LPS for a period of 24 h. In some experiments (detailed in Results), BV-2 cells were exposed to MFP compounds for 2 h before a 24 h exposure to LPS and MFP compounds, and in some studies, in the presence of FABP4 siRNA using a 24 h treatment that we have previously employed (Low et al. [2021]). […]
For measurement of extracellular nitrite concentrations, the Griess assay was performed as per the manufacturer’s protocol (Molecular Probes, Eugene, OR) with minor changes. […] The absorbance of the media samples was measured on a Perkin-Elmer Enspire plate reader at 548 nm, with nitrite concentrations in media samples obtained by back calculating sample absorbance values back to a standard curve prepared through serial dilution of NaNO2 prepared in media.

[11] = test system: BV-2 cells; assay: MTT assay of BV-2 cell viability; format: cell-based, mouse; details: 24 h; for fold reduction in cell viability: 75 µM and 100 µM of MFP-0012328, 100 µM of the other MFP compounds, range over the compounds; for BV-2 cell viability relative to vehicle control: 2–50 µM, MTT
Description: BV-2 cells were cultured in DMEM/F-12 media supplemented with 10% (v/v) FBS and 1% (v/v) penicillin/streptomycin, and kept at 37 °C in a humidified incubator ([…], 5% CO2) for all studies. Cells with 80% confluency were used for experiments. At 24 h post-seeding, BV-2 cells were treated with either of the MFP compounds (at concentrations detailed below) or vehicle (0.1% (v/v) DMSO) and 1 µg/mL LPS for a period of 24 h. In some experiments (detailed in Results), BV-2 cells were exposed to MFP compounds for 2 h before a 24 h exposure to LPS and MFP compounds, and in some studies, in the presence of FABP4 siRNA using a 24 h treatment that we have previously employed (Low et al. [2021]). In brief, BV-2 cells were washed once 4 h post-seeding with blank DMEM/F-12 media. siRNA complexes (containing FABP4 siRNA, target sequence 5’-[…]-3’ or AllStar Negative Control siRNA, target sequence proprietary) were added dropwise onto the cells. siRNA complexes were prepared by mixing siRNA and HiPerfect transfection reagent together in FBS-free DMEM/F12 media and incubating for 15 min to allow the siRNA complexes to form. The cells were incubated with the siRNA complex for 5 min, after which, DMEM/F12 media containing FBS was added into each well to dilute the siRNA complexes to 5 nM.
To determine the most appropriate and tolerable concentration of MFP compounds in BV-2 cells, an MTT assay was performed. Following treatment with increasing concentrations of MFP compounds for 24 h, BV-2 cells were rinsed once with PBS prior to being incubated with 0.45 mg/mL MTT reagent for 4 h in a 37 °C, 5% CO2 incubator. After that, the MTT reagent was removed and 150 µL of DMSO was added into all wells for 30 min. The plate was then immediately read on a Perkin-Elmer Enspire fluorescence plate reader (Boston, MA) at 540 nm. Background subtraction was performed before the percentage cell viability was calculated and expressed as a ratio of mean absorbance of MFP-treated cells over mean absorbance of vehicle-treated cells.

[12] = read-out: KD (ITC titration of FABP4, Figure S1)

T1 sequence (P15090 whole entry): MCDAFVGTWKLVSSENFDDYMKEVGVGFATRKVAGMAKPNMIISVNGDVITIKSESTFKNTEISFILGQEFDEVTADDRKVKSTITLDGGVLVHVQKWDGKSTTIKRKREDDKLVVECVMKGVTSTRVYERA

Row | solubility [5] [µM] | Kd [9, 12] [nM] | Kd ([9]; 25°C, pH 7.4, 2% DMSO, read-out: KD against FABP4) [nM] | Structure (SMILES) | reduction in LPS-mediated TNF-α release [1] [%] | reduction in ROS levels [2] [%] | Ki [3] [nM] | reduction in nitrite production [4] [%] | toxicity to BV-2 cells [6] | LogP [7] | % reduction in intracellular ROS production (mean ± SEM) ([8]; 10 µM) | % reduction in intracellular ROS production (mean ± SEM) ([8]; 50 µM) | attenuation of LPS-mediated release of nitrite [10] [%] | fold reduction in cell viability [11] | BV-2 cell viability relative to vehicle control [11]
1 | ≥ 100 |  |  | CCc1c(-c2ccccc2)c(-c2ccccc2)nn1-c1ccccc1-c1cccc(OCC(=O)O)c1 [BMS309403, 2-((2'-(5-Ethyl-3,4-diphenyl-1H-pyrazol-1-yl)-[1,1'-biphenyl]-3-yl)oxy)acetic acid] | 29.0 | 36.0 | < 2 | 26.8 | does not exhibit toxicity | 7.2 |  |  |  |  | 
2 |  | 694 |  | COc1cc(S(=O)(=O)Nc2cccc(C(=O)O)c2)ccc1Cl [MFP-0011462] |  |  |  |  |  |  | 49 ± 0.04 (****p < 0.0001) % | 46 ± 0.08 (***p < 0.001) % | 12.2 | 0.17–0.27 fold | no significant differences
3 |  | 885 |  | COc1ccc(S(=O)(=O)Nc2cccc(C(=O)O)c2)cc1Cl [MFP-0012314] |  |  |  |  |  |  | 40 ± 0.09 (**p < 0.01) % | 42 ± 0.07 (***p < 0.001) % |  | 0.17–0.27 fold | no significant differences
4 |  |  | > 100000 | CNC(=O)c1ccc(S(=O)(=O)Nc2cccc(C(=O)O)c2)cc1 [MFP-0012318] |  |  |  |  |  |  |  | 54 ± 0.09 (****p < 0.0001) % |  | 0.17–0.27 fold | no significant differences
